Measured values as given in patent publication US20130022692A1, “Expression Modulator For Clock Gene Period” (SHISEIDO COMPANY, LTD., priority 2010, published 2013).

Test system: Period1 gene
Assay: Period1 gene expression in cultured human skin fibroblastic cells (RT-PCR)
Assay type: cell-based
Details: for Induction of expression rhythm and increase of Period1 gene expression: peak at 2 hours after stimulation, result in words
Description: As the cultured human fibroblastic cells, fibroblastic cells from normal human skin were purchased (Cell Application, Inc.) and used in the experiments. They were inoculated in DMEM medium supplemented with 10% FBS, 20 mM HEPES, Glutamax and antibacterial agents and cultured at 37° C. in 5% CO2. On the 6th day of culture, 50 ng/mL of cortisol or 10 μM of forskolin was added to each wells, and the samples were harvested at various times after time 0, which was defined as the time immediately after the addition of cortisol or forskolin. RNA was extracted from the cells with a commercially available RNA extraction kit, and the amounts of expression of the intended genes were measured by RT-PCR technology using commercially available PCR primers (Perfect Real Time Primer, Takara Bio). As for clock genes, amounts of expression of Period1 and Bmal1, which are involved in the core system, were determined. Similarly, the amounts of expression of a housekeeping gene RPLP0 were quantified and used as an internal standard to calculate the relative expression of the intended genes to RPLP0. […] Test substances were evaluated for the expression modulating effect on a Period gene based on the amount of gene expression at 2 hours after stimulation. To confirm the induction of expression rhythm for the Period gene, the amount of expression of the Period1 gene at 16 hours after stimulation was also determined. Fibroblastic cells from normal human skin (Cell Application, Inc.) were inoculated according to a method similar to those used above. Each test substance was added on the 6th day of culture to a final concentration of 100 ppm, and the cells were harvested 2 and 16 hours after stimulation. […] The amounts of expression of the Period1 gene were determined by RT-PCR technology using commercially available PCR primers (Perfect Real Time Primer, Takara Bio). The amounts of gene expression of a housekeeping gene RPLP0 were quantified and used as an internal standard to calculate the relative expression of the target genes with respect to RPLP0.

Structure (SMILES) | Induction of expression rhythm and increase of Period1 gene expression | Relative amount of Period1 gene expression (2 hours) (test substance 100 ppm, 2 hours after stimulation, relative to RPLP0, control 0.23, *p < 0.05, **p < 0.01)
C[C@]12CCC(=O)C=C1CC[C@@H]1[C@@H]2[C@@H](O)C[C@@]2(C)[C@H]1CC[C@]2(O)C(=O)CO [cortisol, reference compound] | significantly increase amounts of gene expression of Period1 | –
C=C1CC/C=C(\C)CC[C@@H]2[C@@H]1CC2(C)C [beta-Caryophyllene] | significantly increase amounts of gene expression of Period1 | 0.44*
